Test results as given in ChEMBL document CHEMBL4417632, “Inhibitors of alpha-amino-beta-carboxymuconic acid semialdehyde decarboxylase” (2017).
Calls of active or inactive are those of the source. No cut-off for these calls is given here.

Experiments:
[1] = Cytotoxicity in mouse AML-12 cells assessed as reduction inc ell viability at 10 nM to 300 uM incubated for 4 hrs by LDH release assay; format: cell-based
HepG2 = experiment: Cytotoxicity against human HepG2 cells assessed as reduction in cell viability at 0.01 to 300 uM incubated for 4 hrs by LDH release assay; format: cell-based; conditions: hepg2, 4 h
[2] = molecular target: 2-amino-3-carboxymuconate-6-semialdehyde decarboxylase (Homo sapiens) (UniProt Q8TDX5); experiment: Inhibition of ACMSD in human primary hepatocytes assessed as increase in NAD concentration at 250 uM following compound replacement every 24 hrs by LC-MS/MS analysis; format: cell-based
2-amino-3-carboxymuconate-6-semialdehyde decarboxylase (Homo sapiens), sequence (Q8TDX5 whole entry, looked up): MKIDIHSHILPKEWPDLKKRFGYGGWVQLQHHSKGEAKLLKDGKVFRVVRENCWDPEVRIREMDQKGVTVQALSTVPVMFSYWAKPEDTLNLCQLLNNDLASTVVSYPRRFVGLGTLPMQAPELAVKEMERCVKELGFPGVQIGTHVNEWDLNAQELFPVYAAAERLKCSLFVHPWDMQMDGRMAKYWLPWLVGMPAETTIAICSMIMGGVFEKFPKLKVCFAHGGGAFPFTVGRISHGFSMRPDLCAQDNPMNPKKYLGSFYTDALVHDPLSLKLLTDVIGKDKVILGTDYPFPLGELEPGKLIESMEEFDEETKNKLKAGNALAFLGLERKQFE

[3] = molecular target: 2-amino-3-carboxymuconate-6-semialdehyde decarboxylase (Mus musculus) (UniProt Q8R519); experiment: Inhibition of ACMSD in C57BL/6J mouse primary hepatocytes assessed as induction of SOD2 activity incubated for 24 hrs; format: cell-based
2-amino-3-carboxymuconate-6-semialdehyde decarboxylase (Mus musculus), sequence (Q8R519 whole entry): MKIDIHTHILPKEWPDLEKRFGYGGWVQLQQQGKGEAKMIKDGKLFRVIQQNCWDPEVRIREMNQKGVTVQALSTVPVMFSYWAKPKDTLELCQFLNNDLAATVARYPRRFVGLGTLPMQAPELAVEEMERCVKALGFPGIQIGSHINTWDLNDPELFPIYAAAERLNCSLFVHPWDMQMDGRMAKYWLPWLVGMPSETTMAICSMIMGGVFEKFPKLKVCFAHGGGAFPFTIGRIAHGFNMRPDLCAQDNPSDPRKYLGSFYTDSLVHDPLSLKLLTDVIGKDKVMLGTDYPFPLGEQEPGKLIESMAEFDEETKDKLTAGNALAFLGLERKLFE

[4] = molecular target: 2-amino-3-carboxymuconate-6-semialdehyde decarboxylase (Mus musculus) (UniProt Q8R519); experiment: Inhibition of ACMSD in mouse AML12 cells assessed as reduction in FoxO1 phosphorylation at Ser256 residue incubated for 24 hrs; format: cell-based
[5] = molecular target: 2-amino-3-carboxymuconate-6-semialdehyde decarboxylase (Mus musculus) (UniProt Q8R519); experiment: Inhibition of ACMSD in mouse AML12 cells assessed as induction of SOD2 activity incubated for 24 hrs; format: cell-based
[6] = molecular target: 2-amino-3-carboxymuconate-6-semialdehyde decarboxylase (Mus musculus) (UniProt Q8R519); experiment: Inhibition of ACMSD in mouse AML12 cells assessed as increase in Sod2 mRNA expression incubated for 24 hrs by RT-qPCR analysis; format: cell-based
[7] = molecular target: 2-amino-3-carboxymuconate-6-semialdehyde decarboxylase (Homo sapiens) (UniProt Q8TDX5); experiment: Inhibition of ACMSD in human primary hepatocytes assessed as increase in NAD concentration at 0.5 uM following compound replacement every 24 hrs by LC-MS/MS analysis; format: cell-based
MDCK [8] = experiment: Inhibition of cisplatin-induced apoptosis in MDCK cells assessed as reduction in caspase 3/7 activity at 100 uM pre-incubated for 1 hr before cisplatin challenge for 16 hrs by luminescence based assay; format: functional, cell-based; conditions: Canis lupus familiaris
MDCK [9] = experiment: Inhibition of cisplatin-induced apoptosis in MDCK cells assessed as reduction in caspase 3/7 activity at 100 uM pre-incubated for 1 hr before cisplatin challenge for 16 hrs by luminescence based assay relative to control; format: functional; conditions: Canis lupus familiaris
MDCK [10] = experiment: Inhibition of cisplatin-induced apoptosis in MDCK cells assessed as reduction in caspase 3/7 activity at 30 uM pre-incubated for 1 hr before cisplatin challenge for 16 hrs by luminescence based assay relative to control; format: functional; conditions: Canis lupus familiaris
MDCK [11] = experiment: Inhibition of cisplatin-induced apoptosis in MDCK cells assessed as reduction in caspase 3/7 activity at 30 to 125 uM pre-incubated for 1 hr before cisplatin challenge for 16 hrs by luminescence based assay; format: functional, cell-based; conditions: Canis lupus familiaris
[12] = molecular target: 2-amino-3-carboxymuconate-6-semialdehyde decarboxylase (Mus musculus) (UniProt Q8R519); experiment: Inhibition of ACMSD in C57BL/6J mouse primary hepatocytes assessed as increase in Sod1 mRNA expression incubated for 24 hrs by RT-qPCR analysis; format: cell-based
[13] = molecular target: 2-amino-3-carboxymuconate-6-semialdehyde decarboxylase (Homo sapiens) (UniProt Q8TDX5); experiment: Inhibition of ACMSD in human primary hepatocytes assessed as increase in NAD\"\" concentration following compound replacement every 24 hrs by LC-MS/MS analysis relative to control; format: cell-based
[14] = molecular target: 2-amino-3-carboxymuconate-6-semialdehyde decarboxylase (Mus musculus) (UniProt Q8R519); experiment: Inhibition of ACMSD in C57BL/6J mouse primary hepatocytes assessed as increase in Sod2 mRNA expression incubated for 24 hrs by RT-qPCR analysis; format: cell-based
[15] = molecular target: 2-amino-3-carboxymuconate-6-semialdehyde decarboxylase (Mus musculus) (UniProt Q8R519); experiment: Inhibition of ACMSD in C57BL/6J mouse primary hepatocytes assessed as increase in Pgc1a mRNA expression incubated for 24 hrs by RT-qPCR analysis; format: cell-based
[16] = molecular target: 2-amino-3-carboxymuconate-6-semialdehyde decarboxylase (Homo sapiens) (UniProt Q8TDX5); experiment: Inhibition of ACMSD in human primary hepatocytes assessed as increase in NAD concentration at 5 uM following compound replacement every 24 hrs by LC-MS/MS analysis; format: cell-based

For N#Cc1c(-c2cccs2)nc(SCc2cccc(-c3noc(=O)[nH]3)c2)[nH]c1=O, the Activity [1] was “Non-Toxic” and the Activity (HepG2) was “Non-Toxic”.

In the case of N#Cc1c(-c2nccs2)nc(SCc2cccc(C(=O)O)c2)[nH]c1=O, the Activity [1] is reported as “Non-Toxic” and the Activity (HepG2) is reported as “Non-Toxic”.

For N#Cc1c(-c2cccs2)nc(SCc2cccc(-c3nn[nH]n3)c2)[nH]c1=O, the Activity [1] was “Non-Toxic” and the Activity (HepG2) was “Non-Toxic”.

With CCCCC(CC)COC(=O)c1ccccc1C(=O)O (stereo not drawn) the inhibition [2] was “Active”.

In the case of N#Cc1c(-c2ccccc2)nc(SCc2cccc(C(=O)O)c2)[nH]c1=O, the Activity [1] is reported as “Non-Toxic”, the inhibition [3] is reported as “Dose-dependent effect” and the Activity (HepG2) is reported as “Non-Toxic”. The inhibition [4] was “Dose-dependent effect”, the inhibition [5] was “Dose-dependent effect” and the inhibition [6] was “Dose-dependent effect”. The inhibition [7] was “Active”.

With O=C(O)c1cccc(CSc2nc(-c3ccccc3)c(Br)c(=O)[nH]2)c1 the Activity [1] was “Non-Toxic” and the Activity (HepG2) was “Non-Toxic”.

For N#Cc1c(-c2cccs2)nc(SCc2cccc(CC(=O)O)c2)[nH]c1=O, the inhibition (MDCK [8]) was “Active”, the inhibition at 100 µM (MDCK [9]) was 75% and the inhibition at 30 µM (MDCK [10]) was 29%. For the same molecule, the inhibition (MDCK [11]) was “Active”.

With N#Cc1c(-c2cccs2)nc(SCc2cccc(-c3nnn[nH]3)c2)[nH]c1=O the inhibition [12] was “inactive”, the inhibition [3] was “Dose-dependent effect” and the inhibition [13] was “Dose-dependent effect”. For the same molecule, the inhibition [14] was “Dose-dependent effect”, the inhibition [4] was “Dose-dependent effect” and the inhibition [5] was “Dose-dependent effect”. For the same molecule, the inhibition [15] was “Dose-dependent effect”.

For N#Cc1c(-c2cccs2)nc(SCc2cccc(C(=O)O)c2)[nH]c1=O, the Activity [1] was “Non-Toxic”, the Activity (HepG2) was “Non-Toxic” and the inhibition [16] was “Active”. For the same molecule, the inhibition [7] was “Active”.

For N#Cc1c(-c2ccc(Cl)cc2)nc(SCc2ccc(C(=O)O)cc2)[nH]c1=O, the Activity [1] was “Non-Toxic” and the Activity (HepG2) was “Non-Toxic”.
